# Results from patent publication US20250092360A1, “METHODS AND COMPOSITIONS FOR GENERATING SOMATOSTATIN+ INTERNEURONS FROM HUMAN FOREBRAIN NEURAL PROGENITOR CELLS” (Trailhead Biosystems Inc., priority 2023, published 2025).
# Entries after “also recorded” stand apart in the source; their conditions may differ.
# Tests used:
# [1] = test system: forebrain-committed neural stem cells; test: Factor criticality analysis, stage 2 recipe; assay type: cell-based, human; conditions: other three stage 2 factors present
# Experimental: (§1) To assess the impact of the elimination of each validated factor, dynamic profile analysis was used and compared the expression level of genes of interest in absence of each finalized factor while others are present.
# In the stage 2 recipe, each of the four finalized factors were removed while the other three factors remained present and expression levels of NKX2-1, PAX6 and NKX2-2 were assessed compared to presence of all four factors. Absence of PD0325901 reduced the levels of NKX2-1 and NKX2-2 while increasing PAX6 from 5000 to 3200, 100 to 0 and 0 to 5000, respectively. […] Removing XAV939 reduced the levels of NKX2-1 from 5000 to 3000, while increasing both PAX6 and NKX2-2 to 10000 and 200, respectively. Another observation was the interaction between XAV939 and Purmorphamine. In the absence of XAV939, the impact of Purmorphamine on NKX2-1 became negative and, as it is shown in interaction plot of FIG. 14, the level of NKX2-1 is higher when both factors are present.
# [2] = test system: human pluripotent stem cells; test: HD-DoE stage 1, first 12-factor experiment: gene expression (qPCR) after 3-day treatment; assay type: cell-based
# Excerpt: This example utilizes a method of High-Dimensional Design of Experiments (HD-DoE), as previously described in Bukys et al. (2020) […] 23:101346. The method employs computerized design geometries to simultaneously test multiple process inputs and offers mathematical modeling of a deep effector/response space. The method allows for finding combinatorial signaling inputs that control a complex process, such as during cell differentiation. It allows testing of multiple plausible critical process parameters, as such parameters impact output responses, such as gene expression. Because gene expression provides hallmark features of the phenotype of, for example, a human cell, the method can be applied to identify, and understand, which signaling pathways control cell fate. In the current example, the HD-DOE method was applied with the intent to find conditions for induction of […] neural progenitor-expressed genes, directly from the pluripotent stem cell state. To develop the recipe for each stage, the impact of agonists and antagonists of multiple signaling pathways (herein called effectors) on the expression of two sets of 53 pre-selected genes, after a 3-day treatment, has been tested and modeled. These effectors are small molecules or proteins that are commonly used during stepwise differentiation of stem cells to specific fates. Choice of the effectors were based on current literature on neural induction in forebrain region of developing brain and differentiation of stem cells to neural progenitors. To test the effectors, experiments with at least 8 factors were designed that can assess the response of cells to 48 or more different combinations of effectors in a range of concentrations. To analyze the models, we focused on expression of genes involved in development and patterning of the anterior neuroectoderm and forebrain including OTX2 (Hoch et al. (2015) Cell Reports 12:482-494), SIX3 (Lagutin et al. (2003) Genes & Development 17:368-379) and FEZF2 (Zhang et al. (2014) Development 141:4794-[…]). At later stages we focused on dorsoventral patterning of telencephalon and gene expressed in ventral forebrain including NKX2-1 and absence of PAX6 which is a dorsal forebrain marker (Stoykova et al. (2000) J. Neurosci. 20:8042-8050). The impact of each effector on gene expression level is defined by a parameter called factor contribution that is calculated for each effector during the modeling. To identify the recipe for stage 1 of differentiation, 96 different combinations of effectors generated using Design-of-Experiments compression through D-optimality were robotically prepared. The effector combinations were prepared in a basal media and were subsequently added to the cells, which were then allowed to differentiate. Three days later RNA extraction was performed, and gene expression was obtained using quantitative PCR analysis. The data were normalized and modeled using partial least squares regression analysis to the effector design, resulting in the generation of gene-specific models, which after model tuning for maximal Q2 predictive power, provided explanation of the effectors ability to control the expression of individual genes, combinatorically, and individually. Solutions within the tested space could then be explored to address desirability. Optimizing for maximal expression of SIX3 at 3300 and FEZF2 1355 expression values led to robust solutions. This model was derived from testing 12 effectors including AGN193109, LDN193189, CHIR99021, XAV939, IGF2, Purmorphamine, 4-oxo-RA, TTNPB, SR11237, FGF8, PD0325901 and […]. […] The model was also optimized for maximum expression of FEZF2 separately at 3576 expression value to find any additional factors that can boost expression of forebrain genes. […] To find the set of factors that have the potential to optimize all 3 genes in this experiment, a new assessment was done through dynamic profile analysis with focus on maximal expression of OTX2, FEZF2 and SIX3.
# [3] = test system: forebrain-committed neural stem cells; test: HD-DoE stage 2, 12-factor experiment: NKX2-1 expression; assay type: cell-based, human; conditions: model / dynamic profile, in words
# Experimental: To further guide the differentiation of forebrain-committed neural stem cells to ventral forebrain neural stem cells at stage 2, a HD-DoE experiment was performed for 3 days after termination of stage 1 treatment. […] This 12-factor experiment included LDN193189, BMP7, PD0325901, MK2206, A8301, XAV939, CHIR99021, Purmorphamine, SANT-1, AGN193109, TTNPB and GSI-XX. […]
# [4] = test system: human pluripotent stem cells; test: HD-DoE stage 1, additional experiment: FEZF2 expression; assay type: cell-based
# Experimental: To identify the recipe for stage 1 of differentiation, 96 different combinations of effectors generated using Design-of-Experiments compression through D-optimality were robotically prepared. The effector combinations were prepared in a basal media and were subsequently added to the cells, which were then allowed to differentiate. Three days later RNA extraction was performed, and gene expression was obtained using quantitative PCR analysis. The data were normalized and modeled using partial least squares regression analysis to the effector design, resulting in the generation of gene-specific models, which after model tuning for maximal Q2 predictive power, provided explanation of the effectors ability to control the expression of individual genes, combinatorically, and individually. Solutions within the tested space could then be explored to address desirability. To further enhance the conditions for forebrain differentiation from pluripotency, an additional HD-DoE experiment was performed. Additional gene regulatory models were obtained that were used for preparation of the differentiation protocol. The factors in this experiment included LDN193189, PD173074, BLU9931, Purmorphamine, SC79, MK2206, ZM336372, PD0325901, CHIR99021, XAV939, UCLA-GP130, Tofacitinib and GO6983. […] Dynamic profile analysis was also used to assess the interaction between the effectors.
# [5] = test system: human pluripotent stem cells; test: Factor criticality analysis, stage 1 recipe (dynamic profile analysis); assay type: cell-based; conditions: other five stage 1 factors present, FIG. 11
# Excerpt: as §1, with “present. […] When Purmorphamine was removed, levels of FEZF2 and SIX3 were decreased to 1000 and below 3000, while levels of OTX2 increased to 6500.” for “present.”
# [6] = test system: medial ganglionic eminence (MGE)-derived neural progenitors; test: Factor criticality analysis, stage 4 recipe; assay type: cell-based, human; conditions: FIG. 27, in words
# Experimental: To assess the impact of elimination of each validated factor, dynamic profile analysis was again used to compare the expression levels of genes of interest in the absence of each finalized factor while the others were present in the media.
# In the stage 4 recipe, each of the five finalized factors was removed while the other four factors remained present in the media and the expression level of forebrain genes was assessed compared to the presence of all 6 factors. SOX6 expression was reported to determine the cortical interneuron-precursors cell fate (see e.g., Azim et al. (2009) Nature Neurosci. 12:1238-1247; Batista-Brito et al. (2009) Neuron 63:466-481). Therefore, optimization of SOX6 expression was focused on at this stage.
# [7] = test system: stage 2 neural stem cells; test: HD-DoE stage 3 experiment: ASCL1, LHX6, DLX1 expression; assay type: cell-based, human
# Experimental: To further guide the cells to medial ganglionic eminence progenitor fate, an additional HD-DoE experiment was performed for 3 days on cells that were treated with stage 1 and stage 2 media for total of 6 days prior to start of the experiment. This experiment included 13 effectors, LDN193189, A8301, GNF5837, AZD3147, GSI-XX, Takinib, PD0325901, PD173074, BLU9931, IGF-1, MHY1485, Purmorphamine and Prostratin. In this model, we focused on maximum expression of genes expressed in neuronal progenitor cells in medial ganglionic eminence (MGE) region including ASCL1, LHX6 and DLX1 (Silberberg et al. (2016) Neuron 92:59-74). When the model was optimized for maximum expression of ASCL1 at 1700, A8301, GSI-XX, Purmorphamine and Takinib, which is an inhibitor of TAK1 pathway, had the highest factor contributions, 18.1, 14.1, 12.7 and 10.1 respectively. […] MHY 1485 also had positive contribution however the factor was below 2 (FIG. 9).
# Therefore, six effectors including A8301, GSI-XX, Takinib, GNF5837, IGF-1 and Purmorphamine were finalized as ingredients of stage 3 differentiation media. A representative recipe for Stage 3 differentiation is summarized below in Table 3.
# [8] = test system: stage 2 neural stem cells; test: Factor criticality analysis, stage 3 recipe; assay type: cell-based, human; conditions: other five stage 3 factors present
# Experimental: as §1
# In the stage 3 recipe, each of the six finalized factors were removed while the other five factors remained present and the expression levels of ASCL1, DLX1 and LHX6 were assessed compared to the presence of all six factors. […] As expected, in the absence of IGF-1, the value of DLX1 increases to 410, however, ASCL1 and LHX6 decreased to 1390 and 220, respectively.
# [9] = test system: medial ganglionic eminence (MGE)-derived neural progenitors; test: HD-DoE stage 4, 12-factor experiment: SOX6 expression; assay type: cell-based, human
# Excerpt: These effectors are small chemical compounds or proteins. They are commonly used during the differentiation of stem cells to specific cell linage. The choice of the effectors was based on the current literature on forebrain neural induction and differentiation of neural progenitor cells to mature neurons.
# To evaluate the effectors on SST differentiation, experiments with 8 or 12 factors were designed to assess the responses of cells to 48 or more combinations of effectors in a range of concentrations. To analyze the models, we focused on expression of genes involved in development and patterning of the forebrain interneurons maturation including LHX6 (Liodis et al. (2007) J. Neurosci. 27:3078-3089; Yuan et al. (2018) Elife 7: e37382), SOX6 (Azim et al. (2009) Nature Neurosci. 12:1238-1247; Batista-Brito et al. (2009) Neuron 63:466-481), DLX5 (de Lombares et al. (2019) Aging (Albany NY) 11:6638; Wang et al. (2010) J. Neurosci. 30:5334-5345) and ASCL1 (Barretto et al. (2020) J. Neurosci. Meth. 334:108548; Shi et al. (2016) J. Biol. Chem. 291:13560-13570). At later stages we focused on interneuron maturation genes including somatostatin and absence of Parvalbumin (Horn and Nicoll (2018) Proc. Natl. Acad. Sci. 115:589-594). The impacts of each effector on gene expression level are defined by a parameter called factor contribution that is calculated for each effector during the modeling.
# To identify the recipe for differentiation at stage 4, at least 48 different combinations of effectors were robotically prepared by the Design-of-Experiments compression through D-optimality. The effector combinations were prepared in a basal media and were subsequently added to the cells, which were then allowed to differentiate. Three days later, RNA extraction was performed, and gene expression levels were examined using quantitative PCR analysis. The data was normalized and modeled using partial least squares regression analysis to the effector design, resulting in the generation of gene-specific models, which after model tuning for maximal predictive power, provided explanation of the effectors ability to control the expression of individual genes, combinatorically, and individually. Solutions within the tested space could then be explored to address desirability.
# IGF-1 activates the IGF-1 pathway, promotes neuron axonal growth, and establishes the synapse of interneurons. GDNF is the […] and can activate the GDNF pathway. MK2206 is an AKT inhibitor and can inhibit cell proliferation and promote neuronal maturation. PD173074 and BLU-554 are FGFR inhibitors. The FGF pathway is required for the maintenance of neural progenitor cells. Inhibition of the FGFR pathway promotes neural maturation. GSI-XX is a notch pathway inhibitor. Notch pathway inhibits neural progenitor cell differentiation. Inhibition of the Notch pathway promotes neural differentiation.
# To find the set of factors that have the potential to optimize SOX6 in this experiment, a new assessment was done through dynamic profile analysis with focus on maximal expression of SOX6.
molecule,measurement,setting,value
Oc1nc(-c2ccc(C(F)(F)F)cc2)nc2c1CSCC2 [XAV939],expression level of PAX6 when the factor is removed,[1]; 0 with all four factors,10000
same,expression level of NKX2-2 when the factor is removed,[1]; 100 with all four factors,200
same,expression level of NKX2-1 when the factor is removed,[1]; 5000 with all four factors,3000
same,impact on expression of OTX2,"[2]; dynamic profile / model, in words",positive impact
same,"factor contribution, expression of SIX3","[2]; positive impact, model optimized for maximal SIX3, 3-day treatment, qPCR",5
same,impact on expression of NKX2-1,[3],increase; also recorded: Positive impact
same,impact on expression of FEZF2,"[4]; dynamic profile, in words",positive impact
same,"factor contribution, expression of FEZF2","[4]; positive impact, additional stage 1 experiment optimized for FEZF2",12
same,expression level of FEZF2 when the factor is removed,[5]; 2000 with all six factors,1700
same,expression level of SIX3 when the factor is removed,[5]; 3000 with all six factors,1000
same,expression level of OTX2 when the factor is removed,[5]; 5500 with all six factors,5000
IGF-1: Growth factor; activates the IGF-1 pathway,effect on SOX6 expression,[6],increase
same,impact on expression of ASCL1,"[7]; dynamic profile, in words",positive effect
same,impact on expression of DLX1,"[7]; dynamic profile, in words",negative impact
same,impact on expression of LHX6,"[7]; dynamic profile, in words",positive effect
same,"factor contribution, expression of ASCL1","[7]; positive, model optimized for maximum ASCL1 at 1700",7
same,expression level of DLX1 when the factor is removed,[8]; 220 with all six factors,410
same,expression level of LHX6 when the factor is removed,[8]; 240 with all six factors,220
same,expression level of ASCL1 when the factor is removed,[8]; 1650 with all six factors,1390
same,impact on expression of SOX6,"[9]; dynamic profile, in words",positive impact
same,"factor contribution, expression of SOX6","[9]; positive impact, model optimized for maximal SOX6 at 1442",2.9
